{"source": "patent US8524861B2", "about": "“Treatment of bacterial infections” (priority 2004, dated 2013)", "format_in_all_cases": "cell-based", "key": {"Streptococcus pneumoniae": {"tested_on": "Streptococcus pneumoniae", "procedure": "The peptides were examined for antibacterial efficacy against Staphylococcus aureus. To test the efficacy of peptides, dilutions of test peptides or PBS (for use as a control) were prepared in LB broth, and 100 μl aliquots of these placed in 96-well plates. A vial of planktonic bacterial stock was thawed in a 37° C. incubator and diluted to the level previously determined which would produce log phase growth after overnight incubation (see above). 25 μl of this bacterial dilution was then added to the test wells (some wells containing LB broth without peptide were left without any bacterial inoculation, these being used as a blank). After overnight growth, the concentration of bacteria in individual wells was assessed by measuring absorbance at 620 nm, in a microplate spectrophotometer. The average absorbance of wells for specific concentrations of peptides was calculated, and from this the percentage inhibition (relative to untreated wells) was also calculated and plotted against concentration (along with an estimate of error on that % inhibition). […] The inventor constructed an expanded library of peptides derived from either apolipoprotein B or apolipoprotein E in order to further evaluate polypeptides in accordance with the invention. Further experiments were then conducted to investigate the antibacterial activity of this peptide library against the bacteria P. aeroginosa, S. aureus and S. pneumoniae. The methods used to determine the IC50 values for each peptide were as described in the Example 1."}, "Pseudomonas aeruginosa": {"tested_on": "Pseudomonas aeruginosa", "procedure": "To test the effect of treatment of the polypeptides according to the invention by autoclaving, a 400 μM stock solution of GIN1p was prepared in PBS, and 420 μl aliquots were placed in four Eppendorf tubes (with screw lids). After securing the lids, two of the tubes were loaded into a metal rack held within a Pyrex beaker, and placed into a Prestige Medical Clinical Autoclave. The remaining two tubes were left untreated, as a control. The autoclave was then activated, and underwent two autoclave cycles, each of which involved exposure of the peptide solutions to 126° C. for 11 min. Finally, efficacy of the two autoclaved and the two control peptide samples against P. aeruginosa was tested as previously described.\nReferring to FIG. 7, there is shown the level of growth of Pseudomonas aeruginosa after exposure of a bacterial inoculum to various concentrations of GIN 1p (a polypeptide in accordance with the present invention) which had been either autoclaved or without autoclaving, expressed as a % of growth for untreated bacteria. Accordingly, polypeptides according to the invention are therefore suitable for use with products, which would normally be sterilised by autoclaving during the manufacturing procedure."}, "[1]": {"tested_on": "Staphylococcus aureus, Pseudomonas aeruginosa, and Streptococcus pneumoniae", "test": "Antibacterial activity, overall statements over the test bacteria", "from_the_text": "The inventors conducted exhaustive experiments to assess the antibacterial activity of peptides from apolipoproteins and derivatives thereof. Peptides and derivatives from ApoE and ApoB were a particular focus. […] Example 1 illustrates the efficacy of the polypeptides according to the invention compared to apoE141-149 and apoB3359-3367 (i.e. non-tandem repeats) and other peptides derived from apolipoproteins.\nThe activity of polypeptides in accordance with the invention can be seen in Tables 5, 6, 7 and 8.\nThe peptides were examined for antibacterial efficacy against Staphylococcus aureus. To test the efficacy of peptides, dilutions of test peptides or PBS (for use as a control) were prepared in LB broth, and 100 μl aliquots of these placed in 96-well plates. A vial of planktonic bacterial stock was thawed in a 37° C. incubator and diluted to the level previously determined which would produce log phase growth after overnight incubation (see above). 25 μl of this bacterial dilution was then added to the test wells (some wells containing LB broth without peptide were left without any bacterial inoculation, these being used as a blank). After overnight growth, the concentration of bacteria in individual wells was assessed by measuring absorbance at 620 nm, in a microplate spectrophotometer. The average absorbance of wells for specific concentrations of peptides was calculated, and from this the percentage inhibition (relative to untreated wells) was also calculated and plotted against concentration (along with an estimate of error on that % inhibition).\nThe inventor constructed an expanded library of peptides derived from either apolipoprotein B or apolipoprotein E in order to further evaluate polypeptides in accordance with the invention. Further experiments were then conducted to investigate the antibacterial activity of this peptide library against the bacteria P. aeroginosa, S. aureus and S. pneumoniae. The methods used to determine the IC50 values for each peptide were as described in the Example 1."}}, "note": "“Also recorded” adds a separate entry of the source.", "data": [{"substance": "Ac-LRKLRKRLLLRKLRKRLL-NH2 [MU_10]", "values": [{"measurement": "IC50", "setting": "Streptococcus pneumoniae", "result": 45, "unit": "µM"}, {"measurement": "IC50", "setting": "Pseudomonas aeruginosa", "result": "~2", "unit": "µM"}, {"measurement": "Antibacterial activity, in words, bacterium not specified", "setting": "[1]", "result": "particularly effective; also recorded: much greater than that of MU43"}]}]}
